In publication PMC11695783 (Frontiers in Pharmacology, 2024):
Several values for one entry are separate records, joined by “and”; a condition that tells them apart may be missing. Equal entries are not always repeated.

Assay: Pharmacokinetic studies in mice (intravenous and intramuscular, plasma, HPLC-MS/MS)
Type: in vivo, BALB/c mice
Design: AUClast / AUCall / AUCINF_obs / AUCINF_pred / AUCINFobs: concentration or dose not given beside the values; Tlast / Clast / AUMClast / AUMCINF_obs / AUMCINF_pred / Lambda_z / HL_Lambda_z / Cl_obs / Cl_pred / Cl_F_obs / Tlag / Cl_F_pred: unit not given here
Settings: IV; for plasma concentration: individual mice 1-8; for plasma concentration, AV: average of mice
Experimental: Pharmacokinetic experimental procedures of compound 16C were measured according to previous reports with some modifications ([Wang et al., 2022]). In brief, BALB/c mice were divided into two groups of eight mice each; one group was injected intravenously and the other was injected intramuscularly with compound 16C at a dose of 10 mg/kg. The dose was based on previous studies of novel pleuromutilin derivatives ([Jin et al., 2019]; [Wang et al., 2022]). Meanwhile, the dose of tiamulin approved by the European Union for intramuscular administration is 10–20 mg/kg ([EMA, 1999]). The volume of the injection was 0.1 mL/10 g. The compound 16C formulation was a filtered solution in 5% DMSO, 5% Tween-80, and 90% normal saline. Blood was obtained from eight mice via the ocular venous plexus at 0.083, 0.167, 0.25, 0.334, 0.5, 0.75, 1, 1.5, 2, 3, 4, 6, 8, and 12 h following tail intravenous or thigh Intramuscular injection. A glass capillary with a diameter of 0.3 mm was inserted into the outer canthus of the mouse, and 200 μL blood was collected using a 1.5 mL anticoagulant centrifuge tube. The blood was centrifuged at 3,000 rpm for 10 min to obtain plasma. 100 μL of plasma was aspirated for drug concentration detection, and eight parallel samples from different mice were obtained at each time point.
All pharmacokinetic experimental samples and method validation samples were added with 4 times the volume of acetonitrile and shaken for 1 min, centrifuged at high speed at 13,000× g for 10 min, and the supernatants were taken and filtered to detect the drug concentration. Some samples with high concentrations were diluted to the linear range prior to analysis.
The extracted samples were analyzed using a high-performance liquid chromatography-tandem mass spectrometry (HPLC-MS/MS) system (Agilent, Santa Clara, CA, United States) 1200 HPLC and Applied Biosystems (Waltham, MA, United States) API 4000 mass spectrometer). HPLC-MS/MS analysis using a Zorbax Eclipse XDB-C18 (4.6 × 50 mm, 3.5 μm) column (Agilent). The mobile phase A (acetonitrile) and B (water) were applied as a gradient as follows: 0–3 min: 15%–95% A and maintain from 3 min to 5 min at 95% A. 5–5.1 min: 95%–15% A and maintain from 5.1 to 10 min at 15% A. Flow rate: 500 μL/min; column temperature: 30°C and injection volume: 4 μL. The electrospray ionization (ESI) source of the mass spectrometer was operated in […], with the following ion source parameters: ion spray voltage 4,500 V, collision gas 7 psi, ion source gas 1 55 psi, ion source gas 2 40 psi, curtain gas 20 psi, source temperature 600°C. The precursor ion m/z of Compound 16C was 633.3, and the product ions m/z were 272.0 (quantifier) 286.9 and 313.0. Declustering potentials (DP) were 140, 140, and 144 V, respectively; entrance potential (EP) was 10 V; collision energy (CE) was 55, 46, and 15 V, respectively; and collision cell exit potential (CXP) was 14 V.
[…] Pharmacokinetic parameters include time to maximum concentration (Tmax), maximum concentration (Cmax), the area under the plasma concentration–time curve (AUC0-∞), clearance rate (CL), the apparent volume of distribution (Vd), bioavailability (F), elimination half-life (T1/2kel) and absorption half-life (T1/2ka).

With C=C[C@]1(C)C[C@@H](OC(=O)CSc2ccc(NC(=O)Cc3ccc([N+](=O)[O-])cc3)cc2)[C@]2(C)[C@H](C)CC[C@]3(CCC(=O)[C@H]32)[C@@H](C)[C@@H]1O the plasma concentration (0.083h) was 4.18 ng/mL and 5.51 ng/mL and 3.62 ng/mL and 4.5 ng/mL and 6.77 ng/mL and 4.82 ng/mL and 6.27 ng/mL and 4.14 ng/mL, the “plasma concentration, AV” value (0.17h) was 2.954 ng/mL and the plasma concentration (0.17h) was 2.24 ng/mL and 3.08 ng/mL and 2.67 ng/mL and 1.93 ng/mL and 4.06 ng/mL and 3.1 ng/mL and 3.5 ng/mL and 3.05 ng/mL. The “plasma concentration, AV” value (0.25h) was 1.9525 ng/mL, the plasma concentration (0.25h) was 1.53 ng/mL and 1.91 ng/mL and 1.97 ng/mL and 1.44 ng/mL and 2.52 ng/mL and 1.83 ng/mL and 2.17 ng/mL and 2.25 ng/mL and the “plasma concentration, AV” value (0.33h) was 1.413 ng/mL. The plasma concentration (0.33h) was 1.05 ng/mL and 1.59 ng/mL and 1.43 ng/mL and 0.752 ng/mL and 1.83 ng/mL and 1.19 ng/mL and 1.81 ng/mL and 1.65 ng/mL, the “plasma concentration, AV” value (0.5h) was 0.9296 ng/mL and the plasma concentration (0.5h) was 0.563 ng/mL and 0.856 ng/mL and 1.02 ng/mL and 0.564 ng/mL and 1.49 ng/mL and 0.788 ng/mL and 0.986 ng/mL and 1.17 ng/mL. For the same molecule, the “plasma concentration, AV” value (0.75h) was 0.4375 ng/mL, the plasma concentration (0.75h) was 0.295 ng/mL and 0.454 ng/mL and 0.34 ng/mL and 0.281 ng/mL and the “plasma concentration, AV” value (1h) was 0.1263 ng/mL. The “plasma concentration, AV” value (1.5h) was 0.0633 ng/mL, the “plasma concentration, AV” value (2h) was 0.03673 ng/mL and the “plasma concentration, AV” value (3h) was 0.01748 ng/mL. The “plasma concentration, AV” value (4h) was 0.01406 ng/mL, the “plasma concentration, AV” value (6h) was 0.005976 ng/mL and the “plasma concentration, AV” value (8h) was 0.004256 ng/mL. The “plasma concentration, AV” value (12h) was 0.002617 ng/mL, the AUCINF_obs (individual mice) was 1731 and 1454.8 and 1871.31 and 1501.72 and 1496.6 and 2594.18 and 1738.12 and 2317.09 and the AUCINF_pred (individual mice) was 1730.96 and 1454.56 and 1871.3 and 1501.69 and 1496.6 and 2594.16 and 1737.96 and 2317.08. The AUC_%Back_Ext_obs (individual mice) was 23.2101% and 33.5458% and 33.5029% and 23.3787% and 40.4621% and 28.4699% and 29.0426% and 30.8151%, the AUC_%Back_Ext_pred (individual mice) was 23.2107% and 33.5513% and 33.5032% and 23.3791% and 40.462% and 28.47% and 29.0454% and 30.8152% and the AUC_%Extrap_obs (individual mice) was 1.0811% and 0.9306% and 0.1046% and 0.8821% and 0.3771% and 0.7545% and 1.237% and 1.2773%. The AUC_%Extrap_pred (individual mice) was 1.0785% and 0.9144% and 0.1039% and 0.8804% and 0.3773% and 0.754% and 1.2276% and 1.277%, the AUCall (individual mice) was 1712.29 and 1441.26 and 1869.35 and 1488.47 and 1490.96 and 2574.6 and 1716.62 and 2287.49 and the AUClast (individual mice) was 1712.29 and 1441.26 and 1869.35 and 1488.47 and 1490.96 and 2574.6 and 1716.62 and 2287.49. The AUMCINF_obs (individual mice) was 945.518 and 756.201 and 591.051 and 764.612 and 715.375 and 1415.53 and 1084.7 and 1445.93, the AUMCINF_pred (individual mice) was 944.931 and 753.432 and 590.916 and 764.278 and 715.413 and 1415.38 and 1082.77 and 1445.86 and the AUMC_%Extrap_obs (individual mice) was 25.4794% and 20.837% and 3.3902% and 21.6397% and 12.7428% and 15.3656% and 22.9491% and 23.7174%. The AUMC_%Extrap_pred (individual mice) was 25.4331% and 20.546% and 3.368% and 21.6055% and 12.7474% and 15.3562% and 22.812% and 23.7133%, the AUMClast (individual mice) was 704.605 and 598.632 and 571.014 and 599.152 and 624.216 and 1198.03 and 835.77 and 1103 and the C0 (individual mice) was 5541.15 and 7579.63 and 9597.07 and 4839.8 and 10091.7 and 11026.6 and 7343.77 and 10935.2. The Cl_obs (individual mice) was 0.0069 and 0.0053 and 0.0067 and 0.0039 and 0.0058 and 4315.76, the Cl_pred (individual mice) was 0.0069 and 0.0053 and 0.0067 and 0.0039 and 0.0058 and 4315.77 and the Clast (individual mice) was 3.84 and 3.72 and 0.875 and 2.95 and 1.36 and 6.29 and 6.01 and 8.25. For the same molecule, the Cmax (individual mice) was 4140 and 4180 and 5510 and 3620 and 4500 and 6770 and 4820 and 6270, the HL_Lambda_z (individual mice) was 3.378 and 2.5225 and 1.5506 and 3.1126 and 2.8768 and 2.157 and 2.4798 and 2.4866 and the Tlast (individual mice) was 8 and 12. The Cmax_D (individual mice, dose-normalised, in µg/mL) was 0.0004 and 418 and 551 and 362 and 450 and 677 and 482, the Lambda_z (individual mice, non-compartmental analysis) was 0.2052 and 0.2748 and 0.447 and 0.2227 and 0.2409 and 0.3213 and 0.2795 and 0.2788 and the MRTINF_obs (individual mice, in h) was 0.5462 and 0.5198 and 0.3158 and 0.5092 and 0.478 and 0.5457 and 0.6241 and 0.624. The MRTINF_pred (individual mice, in h) was 0.5459 and 0.518 and 0.3158 and 0.5089 and 0.478 and 0.5456 and 0.623 and 0.624, the MRTlast (individual mice, in h) was 0.4115 and 0.4154 and 0.3055 and 0.4025 and 0.4187 and 0.4653 and 0.4869 and 0.4822 and the Tmax (individual mice, in h) was 0.083.
